Laboratory results: PubChem BioAssay (NCI)
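Results reflect a 48-hour exposure of cells in 96-well plates to compound at five concentrations. TGI marks complete inhibition of growth.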

Experiments:
Assay in all cases: DTP human tumour cell line panel, 48 h
[1] = system: MDA-MB-435
[2] = system: RXF 393 renal
[3] = system: KM12 colon
[4] = system: 786-0 renal
[5] = system: SF-295 CNS
[6] = system: TK-10 renal
[7] = system: SK-MEL-28 melanoma
[8] = system: UACC-62 melanoma
[9] = system: OVCAR-4 ovarian
[10] = system: NCI/ADR-RES ovarian

Compound | TGI [1] [µM] | TGI [2] [µM] | TGI [3] [µM] | TGI [4] [µM] | TGI [5] [µM] | TGI [6] [µM] | TGI [7] [µM] | TGI [8] [µM] | TGI [9] [µM] | TGI [10] [µM]
COC(=O)C(Cc1c[nH]c2ccccc12)NP(=O)(O)OCC1OC(n2cc(Br)c(=O)[nH]c2=O)CC1O (centres undefined) | > 100 | > 100 | > 100 | > 100 | > 100 | > 100 | > 100 | > 100 | > 100 | > 100
COc1ccc(-c2ncn(C[Si](C)(C)C)c2-c2ccc(OC)cc2)cc1 | 13 | 21.1 | 19.9 | 18.7 | 18.3 | 20 | 14.8 | 10.2 | 25.6 | 29.1
CC1SC2(CCCCC2)N(NC(=O)CSc2nc3ccc(Cl)cc3c(=O)n2-c2ccccc2)C1=O (centres undefined) | 54.7 | 38.5 | > 100 | 34.9 | 36.8 | > 100 | 88.4 | 37.5 | > 100 | 50.2
CC(=O)C(C(C)=O)[C@@H]1OC(C)(C)O[C@@H]1[C@H]1COC(C)(C)O1 | > 100 | > 100 | > 100 | > 100 | > 100 | > 100 | > 100 | > 100 | > 100 | > 100
N#Cc1cc(Sc2ccc(N)c(C#N)c2)ccc1N | 12.6 | > 100 | 24.9 | 43.3 | > 100 | > 100 | > 100 | > 100 | 98.8 | 35.3
CC(C)C(=O)/C=C/S/C=C/C(=O)C(C)C | 30.1 | 19.4 | 92.1 | 6.52 | > 100 | > 100 | 21.1 | 27.9 | > 100 | 9.63
COc1c(Br)cc2ccccc2c1-c1c(OC)c(Br)cc2ccccc12 | > 100 | > 100 | > 100 | > 100 | > 100 | > 100 | > 100 | > 100 | > 100 | > 100
CCCCc1ccc(Nc2nc(Cl)c3ccn(C4CC(Oc5ccc(C)cc5)C(COc5ccc(C)cc5)O4)c3n2)cc1 (centres undefined) | > 46.4 | > 46.4 | > 46.4 | > 46.4 | > 46.4 | 43.4 | > 100 | 30.6 | > 31.6 | > 46.4
Nn1c(=O)[nH]c2ncn(Cc3ccccc3)c2c1=O | > 100 | > 100 | > 100 | > 100 | > 100 | > 100 | > 100 | > 100 | > 100 | > 100
CCN(CC)CC1CN=C(N)O1 (centres undefined) | > 100 | > 100 | > 100 | > 100 | > 100 |  | > 100 | > 100 | > 100 | > 100
